# Counter-ions that a name gives are not always drawn.
# Tests used:
# [1] = target: T1, proMMP9(20-445;ΔFnII) (SEQ ID NO:6) (Homo sapiens, UniProt P14780, DEL216-390); test: ThermoFluor with proMMP9(20-445;ΔFnII); settings: read-out: proMMP9(20-445; ΔFnII) (SEQ ID NO: 6) binding
# T1 construct: start methionine (N); made in house; host or cells: E. coli BL21(DE3) RIL
# T1 sequence (P14780 with tags, fused parts or gaps DEL216-390): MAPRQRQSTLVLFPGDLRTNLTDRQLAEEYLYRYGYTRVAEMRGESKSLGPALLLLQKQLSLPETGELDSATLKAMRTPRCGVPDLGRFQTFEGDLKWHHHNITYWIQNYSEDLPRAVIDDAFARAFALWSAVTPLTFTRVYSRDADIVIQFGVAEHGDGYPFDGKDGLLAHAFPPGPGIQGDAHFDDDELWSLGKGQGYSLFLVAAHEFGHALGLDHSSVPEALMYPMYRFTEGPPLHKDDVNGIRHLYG
# In short: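 Thermal shift of 2.8 μM desalted proMMP9(20-445;ΔFnII) with 50 μM 1,8-ANS in 50 mM HEPES pH 7.0, NaCl, Tween-20, MgCl2, CaCl2; heated 40-90 °C at 1 °C/min, emission 500 nm. Tm from fitted curves; binding fit using DSC/ThermoFluor-derived unfolding parameters for 11-point compound dilutions.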
# [2] = target: T2, proMMP9(67-444;ΔFnII) (SEQ ID NO:5) (Homo sapiens, UniProt P14780, DEL216-390); test: ThermoFluor with proMMP9(67-444;ΔFnII); settings: read-out: proMMP9(67-444; ΔFnII) (SEQ ID NO: 5) binding
# T2 construct: start methionine (N); made in house; host or cells: E. coli BL21(DE3) RIL
# T2 sequence (P14780 with tags, fused parts or gaps DEL216-390): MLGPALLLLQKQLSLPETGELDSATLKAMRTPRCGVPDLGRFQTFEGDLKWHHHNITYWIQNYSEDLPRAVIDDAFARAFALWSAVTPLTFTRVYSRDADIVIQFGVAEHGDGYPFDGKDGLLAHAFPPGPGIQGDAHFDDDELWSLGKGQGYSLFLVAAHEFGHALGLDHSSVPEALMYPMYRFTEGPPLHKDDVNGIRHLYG
# In short: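 Thermal shift with 3.5 μM protein and 50 μM 1,8-ANS in 50 mM HEPES pH 7.0, 100 mM NaCl, 0.001% Tween-20, 2.5 mM MgCl2, 300 μM CaCl2, heated 40–90 °C at 1 °C/min. Fluorescence (500±25 nm) fit to yield Tm; binding fitted using DSC/ThermoFluor-derived thermodynamic parameters, compounds dosed as serial dilutions.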
# [3] = target: T3, full-length proMMP9(1-707) (SEQ ID NO:1) (Homo sapiens, UniProt P14780, R574P); test: proMMP9/MMP3 P126 Activation Assay; assay type: biochemical; settings: proMMP9(1-707) from HEK293 cells activated by catalytic MMP3
# T3 construct: made in house; host or cells: HEK293 (proMMP9, secreted); E. coli (MMP3)
# T3 sequence (P14780 20-707 R574P): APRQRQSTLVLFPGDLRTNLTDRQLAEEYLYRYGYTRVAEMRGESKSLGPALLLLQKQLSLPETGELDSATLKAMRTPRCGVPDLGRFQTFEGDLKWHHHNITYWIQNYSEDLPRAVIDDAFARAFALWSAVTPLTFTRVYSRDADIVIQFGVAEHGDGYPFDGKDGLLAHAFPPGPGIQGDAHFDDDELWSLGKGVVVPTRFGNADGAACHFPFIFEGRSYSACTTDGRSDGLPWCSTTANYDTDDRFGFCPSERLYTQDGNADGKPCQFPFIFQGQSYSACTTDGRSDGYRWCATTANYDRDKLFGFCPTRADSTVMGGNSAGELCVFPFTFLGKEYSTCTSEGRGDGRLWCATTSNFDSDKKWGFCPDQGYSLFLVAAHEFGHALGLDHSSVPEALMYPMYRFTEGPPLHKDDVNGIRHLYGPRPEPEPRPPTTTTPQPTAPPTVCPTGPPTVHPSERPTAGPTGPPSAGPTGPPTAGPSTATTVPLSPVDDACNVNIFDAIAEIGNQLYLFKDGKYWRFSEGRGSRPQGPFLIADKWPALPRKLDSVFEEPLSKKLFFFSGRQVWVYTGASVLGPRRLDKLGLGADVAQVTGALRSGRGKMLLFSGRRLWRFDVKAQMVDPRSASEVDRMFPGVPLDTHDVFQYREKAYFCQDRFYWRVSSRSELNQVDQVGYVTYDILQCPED
# Protocol: proMMP9/MMP3 P126 Activation Assay
# The reaction volume was 50 μL. […] Reactivity of residual MMP3 towards P-126 substrate was minimal under these conditions.
# [4] = target: T4, proMMP13(1-268) (SEQ ID NO:7) (Homo sapiens, UniProt P45452); test: ProMMP13/Plasmin P126 Activation Assay; assay type: biochemical; settings: proMMP13(1-268) activated by plasmin
# T4 construct: 6×-histidine tag (C); made in house; host or cells: HEK293 (transient transfection, secreted)
# Protocol: ProMMP13/Plasmin P126 Activation Assay
# On the day of assay, proMMP13(1-268) (SEQ ID NO:7) purified from HEK293 cells and plasmin were diluted to 160 nM and 320 nM, respectively, in assay buffer. The reaction volume was 50 μL. […] The plate was sealed and incubated for 40 min at 37° C. […] Plasmin was not reactive towards P-126 substrate under these conditions.
Compound,Kd [1] [nM],Kd [2] [nM],IC50 [3] [nM],IC50 [4] [nM]
"CC(C)Oc1ccc(C(N)=O)cc1Nc1nc(-c2ccc(N3CCN(C(C)C)CC3)cc2)cs1 [Example 10, 4-Isopropoxy-3-((4-(4-(4-isopropylpiperazin-1-yl)phenyl)thiazol-2-yl)amino)benzamide.HCl]",17,33,50,120
"CC(C)Oc1ccc(S(N)(=O)=O)cc1Nc1nc(-c2ccc(C3=CCN(C)CC3)cc2)cs1 [Example 13, 4-Isopropoxy-3-((4-(4-(1-methyl-1,2,3,6-tetrahydropyridin-4-yl)phenyl)thiazol-2-yl)amino)benzenesulfonamide.TFA]",17,14,24,190
"CCOc1ccncc1Nc1nc(-c2ccc(C3=CCN(CC)CC3)cc2)cs1 [Example 22, N-(4-Ethoxypyridin-3-yl)-4-(4-(1-ethyl-1,2,3,6-tetrahydropyridin-4-yl)phenyl)thiazol-2-amine.TFA]",340,36,69,1200
"CCOc1ccncc1Nc1nc(-c2ccc(C3=CCN(C(C)C)CC3)cc2)cs1 [Example 23, N-(4-Ethoxypyridin-3-yl)-4-(4-(1-isopropyl-1,2,3,6-tetrahydropyridin-4-yl)phenyl)thiazol-2-amine.TFA]",510,35,60,850
"CC(C)Oc1ccc(C(N)=O)cc1Nc1nc(-c2ccc(OCCN3CCN(C)CC3)cc2)cs1 [Example 42, 4-isopropoxy-3-((4-(4-(2-(4-methylpiperazin-1-yl)ethoxy)phenyl)thiazol-2-yl)amino)benzamide.TFA]",16,78,27,270
"CCOc1ccncc1Nc1nc(-c2ccc(OCCN3CCN(C)CC3)cc2)cs1 [Example 43, N-(4-ethoxypyridin-3-yl)-4-(4-(2-(4-methylpiperazin-1-yl)ethoxy)phenyl)thiazol-2-amine.TFA]",550,89,70,2900
"CC(C)Oc1ccc(C(N)=O)cc1Nc1nc(-c2ccc(OCCN3CCN(C4CC4)CC3)cc2)cs1 [Example 44, 3-((4-(4-(2-(4-cyclopropylpiperazin-1-yl)ethoxy)phenyl)thiazol-2-yl)amino)-4-isopropoxybenzamide.TFA]",24,110,43,520
"CC(C)Oc1ccc(S(N)(=O)=O)cc1Nc1nc(-c2ccc(OCCN3CCN(C4CC4)CC3)cc2)cs1 [Example 45, 3-((4-(4-(2-(4-cyclopropylpiperazin-1-yl)ethoxy)phenyl)thiazol-2-yl)amino)-4-isopropoxybenzenesulfonamide.TFA]",29,56,41,950
"CC(C)Oc1ccc(C(N)=O)cc1Nc1nc(-c2ccc(OCCCN3CCOCC3)cc2)cs1 [Example 46, 4-isopropoxy-3-((4-(4-(3-morpholinopropoxy)phenyl)thiazol-2-yl)amino)benzamide.TFA]",20,99,62,340
"CC(C)Oc1ccc(C(N)=O)cc1Nc1nc(-c2ccc(CN3CCN(C4CC4)CC3)cc2)cs1 [Example 50, 3-((4-(4-((4-cyclopropylpiperazin-1-yl)methyl)phenyl)thiazol-2-yl)amino)-4-isopropoxybenzamide.TFA]",22,100,49,680
"CC(C)Oc1ccc(S(N)(=O)=O)cc1Nc1nc(-c2ccc(CN3CC[C@@H](F)C3)cc2)cs1 [Example 53, (R)-3-((4-(4-((3-fluoropyrrolidin-1-yl)methyl)phenyl)thiazol-2-yl)amino)-4-isopropoxybenzenesulfonamide.TFA]",58,95,59,930
"CC(C)Oc1ccc(C(N)=O)cc1Nc1nc(-c2ccc(CN3CCN(C(C)C)CC3)cc2)cs1 [Example 56, 4-isopropoxy-3-((4-(4-((4-isopropylpiperazin-1-yl)methyl)phenyl)thiazol-2-yl)amino)benzamide.TFA]",18,80,100,420

# Other lines, results leading:
Kd [1] [nM],Kd [2] [nM],IC50 [3] [nM],IC50 [4] [nM],Compound
13,21,28,77,"CC(C)Oc1ccc(C(N)=O)cc1Nc1nc(-c2ccc(N3CCNCC3)cc2)cs1 [Example 7, 4-Isopropoxy-3-((4-(4-(piperazin-1-yl)phenyl)thiazol-2-yl)amino)benzamide.TFA]"
18,12,66,340,"CC(C)Oc1ccc(S(N)(=O)=O)cc1Nc1nc(-c2ccc(C3=CCNCC3)cc2)cs1 [Example 12, 4-Isopropoxy-3-((4-(4-(1,2,3,6-tetrahydropyridin-4-yl)phenyl)thiazol-2-yl)amino)benzenesulfonamide.TFA]"
11,24,26,91,"CC(C)Oc1ccc(C(N)=O)cc1Nc1nc(-c2ccc(C3=CCN(C)CC3)cc2)cs1 [Example 17, 4-Isopropoxy-3-((4-(4-(1-methyl-1,2,3,6-tetrahydropyridin-4-yl)phenyl)thiazol-2-yl)amino)benzamide.TFA]"
17,51,25,32,"CCN1CC=C(c2ccc(-c3csc(Nc4cc(C(N)=O)ccc4OC(C)C)n3)cc2)CC1 [Example 18, 3-((4-(4-(1-Ethyl-1,2,3,6-tetrahydropyridin-4-yl)phenyl)thiazol-2-yl)amino)-4-isopropoxybenzamide.TFA]"
13,21,28,87,"CC(C)Oc1ccc(C(N)=O)cc1Nc1nc(-c2ccc(C3=CCN(C(C)C)CC3)cc2)cs1 [Example 19, 4-Isopropoxy-3-((4-(4-(1-isopropyl-1,2,3,6-tetrahydropyridin-4-yl)phenyl)thiazol-2-yl)amino)benzamide.TFA]"
32,77,76,600,"CC(C)Oc1ccc(S(N)(=O)=O)cc1Nc1nc(-c2ccc(OCCCN3CCOCC3)cc2)cs1 [Example 47, 4-isopropoxy-3-((4-(4-(3-morpholinopropoxy)phenyl)thiazol-2-yl)amino)benzenesulfonamide.TFA]"
20,99,110,850,"CC(C)Oc1ccc(C(N)=O)cc1Nc1nc(-c2ccc(CN3CCN(C)CC3)cc2)cs1 [Example 48, 4-isopropoxy-3-((4-(4-((4-methylpiperazin-1-yl)methyl)phenyl)thiazol-2-yl)amino)benzamide.TFA]"
26,40,180,3400,"CC(C)Oc1ccc(S(N)(=O)=O)cc1Nc1nc(-c2ccc(CN3CCN(C)CC3)cc2)cs1 [Example 49, 4-isopropoxy-3-((4-(4-((4-methylpiperazin-1-yl)methyl)phenyl)thiazol-2-yl)amino)benzenesulfonamide.TFA]"
1500,360,90,4300,"COc1ccc(F)cc1Nc1nc(-c2ccc(OCCN3CCN(C)CC3)cc2)cs1 [Example 69, N-(5-fluoro-2-methoxyphenyl)-4-(4-(2-(4-methylpiperazin-1-yl)ethoxy)phenyl)thiazol-2-amine.TFA]"
